From PMC7356358 (Biomolecules, 2020)
Read-outs that look alike come from different tables or passages of the source.

How the values were obtained:
KPf [1] = conditions: MP-SPR; for effect of N enrichment of the peptide on affinity of KPf: presence of 5 mM ADP, N-enriched form versus this peptide
Target sequence in this assay (P11144 405-631 limits assumed): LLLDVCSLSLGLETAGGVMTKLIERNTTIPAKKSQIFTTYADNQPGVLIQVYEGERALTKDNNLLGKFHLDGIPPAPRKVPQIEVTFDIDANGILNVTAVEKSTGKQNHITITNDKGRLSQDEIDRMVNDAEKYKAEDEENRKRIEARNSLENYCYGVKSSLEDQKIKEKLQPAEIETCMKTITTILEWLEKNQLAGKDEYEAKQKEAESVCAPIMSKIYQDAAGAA
Protocol: The respective affinity of each Hsp70 for model peptide substrate was investigated by MP-SPR. The Hsp70 ligands were immobilized as previously described [36]. […] The analytes were injected at varying concentrations (0, 125 nM, 250 nM, 500 nM, 1000 nM and 2000 nM) over the immobilized ligands (Hsp70s). The analytes were injected at a flow rate of 100 µL/min and association and dissociation were allowed to occur for 10 min. The assay was conducted both in the absence and presence of 5 mM ADP/ATP. Analysis of association and dissociation data was conducted as previously described using TraceDrawer software version 1.8 (Ridgeview Instruments).

DnaK [2] = target: T1, DnaK (Escherichia coli, UniProt P0A6Y8); test: Model peptide substrate binding by MP-SPR, DnaK; set-up: His6 (polyhistidine) (N); made in house; host or cells: E. coli XL1 Blue; conditions: for effect of asparagine enrichment of the peptide on DnaK's affinity: presence of ADP, N-enriched form versus this peptide; for affinity of DnaK for peptide: peptide 0-2000 nM over immobilized DnaK, presence of ADP (5 mM)
From the text: (§1) The Hsp70 ligands were immobilized as previously described.
Target sequence in this assay (P0A6Y8 whole entry): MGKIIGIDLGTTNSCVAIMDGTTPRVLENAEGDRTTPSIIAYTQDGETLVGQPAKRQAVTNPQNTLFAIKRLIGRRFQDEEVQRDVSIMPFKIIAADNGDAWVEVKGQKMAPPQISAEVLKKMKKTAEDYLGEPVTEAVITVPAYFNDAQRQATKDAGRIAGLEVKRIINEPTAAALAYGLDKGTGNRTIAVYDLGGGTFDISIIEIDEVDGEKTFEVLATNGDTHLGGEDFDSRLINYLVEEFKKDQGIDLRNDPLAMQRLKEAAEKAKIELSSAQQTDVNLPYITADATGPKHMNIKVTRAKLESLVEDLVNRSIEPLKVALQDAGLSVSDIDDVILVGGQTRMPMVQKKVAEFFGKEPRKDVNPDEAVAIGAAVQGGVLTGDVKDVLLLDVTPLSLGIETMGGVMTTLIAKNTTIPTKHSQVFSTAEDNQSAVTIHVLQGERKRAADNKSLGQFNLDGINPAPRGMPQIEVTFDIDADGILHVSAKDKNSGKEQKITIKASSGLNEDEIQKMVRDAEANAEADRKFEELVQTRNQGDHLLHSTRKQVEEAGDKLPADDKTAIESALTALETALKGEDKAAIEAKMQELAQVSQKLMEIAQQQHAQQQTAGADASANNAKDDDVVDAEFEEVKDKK

KPf [3] = conditions: SD, n = 3
From the text: (§2) Standard deviations shown represent three
(§3) independent assays made using separate protein purification batches. Statistical significance of data was
(§4) Table S2. Comparative ATP binding affinities for the Hsp70 proteins
(§5) The standard deviations shown in parenthesis were […]

KPf [4] = conditions: read-out: Km (µM), + PfHsp40; SD, n = 3
Protocol: (§6) Hsp70 proteins at final concentration of 0.4 μM were each incubated for 5 min in buffer HKMD (10 mM HEPES-KOH pH 7.5, 100 mM KCl, 2 mM MgCl2 and 0.5 mM DTT). The reaction was initiated by the addition of ATP at various concentrations (0–5 mM) and samples were analyzed every 30 min for 4 h.
Standard deviations shown represent three independent assays made using separate protein purification batches.
validated by one way ANOVA test (p< 0.05 *) and (p<0.01**).

DnaK [5] = target: T1, DnaK; test: Steady-state multi-parametric surface plasmon resonance at 25 °C with Hsp70 immobilised by amine coupling and ATP (0-20 uM) injected as analyte.; format: binding; set-up: recombinant full-length, N-terminal His6 tag (pQE30), expressed in E. coli XL1 Blue; conditions: SD, n = 3; read-out: KD /µM (± standard deviation)
Protocol: Association was allowed for 2 min and dissociation was monitored for 8 min.
as §2, §3, §4, §5
Target sequence in this assay (P0A6Y8 2-638): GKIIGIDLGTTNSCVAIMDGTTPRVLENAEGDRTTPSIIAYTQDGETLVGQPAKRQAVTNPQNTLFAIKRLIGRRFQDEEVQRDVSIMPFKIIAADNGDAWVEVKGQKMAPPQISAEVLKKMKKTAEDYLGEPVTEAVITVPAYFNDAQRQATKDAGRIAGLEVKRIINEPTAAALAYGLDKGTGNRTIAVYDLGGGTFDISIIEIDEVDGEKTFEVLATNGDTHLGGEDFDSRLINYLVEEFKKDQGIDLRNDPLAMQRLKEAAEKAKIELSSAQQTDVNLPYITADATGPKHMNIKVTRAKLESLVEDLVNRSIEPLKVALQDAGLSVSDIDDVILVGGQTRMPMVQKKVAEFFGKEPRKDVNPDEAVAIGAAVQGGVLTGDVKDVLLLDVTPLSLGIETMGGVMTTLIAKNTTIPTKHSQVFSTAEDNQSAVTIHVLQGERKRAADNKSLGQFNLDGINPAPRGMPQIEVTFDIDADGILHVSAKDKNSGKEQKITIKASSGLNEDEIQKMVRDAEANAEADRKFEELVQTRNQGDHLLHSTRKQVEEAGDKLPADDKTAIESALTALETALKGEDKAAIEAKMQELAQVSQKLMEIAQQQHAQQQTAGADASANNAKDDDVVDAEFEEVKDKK

PfHsp70-1 [6] = test: Model peptide substrate binding by MP-SPR, PfHsp70-1; set-up: species or system Plasmodium falciparum; conditions: for affinity of PfHsp70-1 relative to the non-enriched peptide (GFRVVLMYRF, ALLLMYRR): presence of ADP
From the text: as §1

KPf [7] = test: ATP binding affinity by MP-SPR, KPf; set-up: species or system E. coli / P. falciparum; conditions: read-out: ATP KD (± standard deviation), 25 °C, immobilized KPf, ATP analyte 0-20 μM, steady state equilibrium, three independent assays
Protocol: This assay was conducted at room temperature (25 °C) using a BioNavis Multi-parametric surface plasmon resonance (MP-SPR; BioNavis; Tampere, Finland) spectroscopy system. […] Steady state equilibrium constant data were processed and analyzed using TraceDrawer software version 1.8 (Ridgeview Instruments; Uppsala, Sweden).
Proteins Vmax (n/mol/min/mg) Km (µM)
as §2, §3
KD /µM (± standard deviation)
as §5

PfHsp70-1 [8] = test: Self-association of PfHsp70-1 by MP-SPR; format: binding, Plasmodium falciparum
Protocol: (§7) As ligands, the recombinant Hsp70 proteins were immobilized on the CMD3D 500L chip. The analyte (respective Hsp70 protein) was prepared at various concentrations of 0, 125, 250, 500, 1000 and 2000 nM, respectively and injected at 50 μL/sec onto each channel with immobilized ligands. A reference channel without immobilized protein served as the control for non-specific binding and changes in refractive index. The analysis was conducted either in the absence or presence of 5 mM ATP/ADP. Association was allowed for 2 min, while dissociation was monitored for 8 min. Data analysis was conducted after double referencing by subtraction of both the baseline RU (buffer with ATP/ADP plus BSA as control protein) and RU from the reference channel. Kinetics steady-state equilibrium constant data were processed after concatenating the responses of all five analyte concentrations by global fitting using TraceDrawer software version 1.8 (Ridgeview Instruments).

[9] = ATPase activity (released inorganic phosphate); format: biochemical; conditions: basal ATPase, 0.4 μM Hsp70, ATP 0-5 mM, buffer HKMD pH 7.5, SD of three independent assays
Protocol: as §6

[10] = Heat stability of secondary structure by far-UV CD; format: physicochemical; conditions: far-UV CD at 222 nm
Protocol: Spectra was averaged for 15 scans after baseline correction (buffer without recombinant protein). The spectra were deconvoluted to α-helix, β-sheet, β-turn and unordered regions, using the Dichroweb server, (http://dichroweb.cryst.bbk.ac.uk; [37]). The effect of heat stress on the secondary structure of the Hsp70s was investigated by monitoring the spectral changes of each protein at various temperatures (19–95 °C). The folded states of each Hsp70 protein at any given temperature were determined using spectral readings obtained at 222 nm as previously described. In a separate experiment, the analysis of PfAdoMetDC protein co-expressed with the various chaperone sets was conducted by monitoring the CD spectrum at 190–240 nm at 22 °C. The assay was repeated in the presence of PfAdoMetDC substrate, S-adenosylmethionine hydrochloride (SAM), as previously described with minor modifications. Briefly, PfAdoMetDC protein was preincubated in PBS supplemented with 100 μM SAM for 30 min prior to analysis at 25 °C. The resultant spectra were monitored and averaged following baseline correction (100 μM SAM using buffer void of the protein).

PfAdoMetDC = test: Co-expression of PfAdoMetDC with supplementary chaperones in E. coli, fold by CD/fluorescence; format: cell-based, Plasmodium falciparum; conditions: co-expression with DnaJ in E. coli BL21 Star (DE3); purified PfAdoMetDC analysed by CD, ANS and intrinsic fluorescence
Protocol: Briefly, the transformed E. coli BL21 Star (DE3) cells were cultured in LB broth supplemented with 100 μg/mL ampicillin (Sigma Aldrich) to select for pASKIBA3 and 50 μg/mL spectinomycin (Sigma Aldrich), to select for pBB535 and pBB542, respectively. As control, PfAdoMetDC expressed alone (without supplementary chaperones), was expressed in E. coli BL21 StarTM (DE3) cells as previously described [33]. The expression of chaperones was initiated by addition of 1 mM IPTG and at OD600 = 0.2 while the expression of PfAdoMetDC was initiated by addition of 2 ng/mL anhydroxytetracycline (AHT) (IBA GmbH, Göttingen, Germany) at OD600 = 0.7. Cells were incubated for 24 h (37 °C, 250 rpm) from the time of induction with IPTG. The cells were harvested by centrifugation (5000 g, 20 min, 4 °C) and the pellet was resuspended in lysis buffer (100 mM Tris pH 7.5; 300 mM NaCl; 10 mM Imidazole, containing 1 mM aminoethyl benzenesulfonyl fluoride hydrochloride (AEBSF) and 1 mg/mL of lysozyme). […] Purified PfAdoMetDC protein was quantified using the Bradford assay. […] Following Strep-Tactin Sepharose affinity column purification, PfAdoMetDC was analyzed using an Äkta explorer system (Amersham Pharmacia Biotech; Buckinghamshire, UK) fast protein liquid chromatography (FPLC), to determine migration profiles of the protein preparations that were co-expressed with the various chaperones sets. The migration pattern of PfAdoMetDC as determined by Size exclusion chromatography (SEC) was used to infer the compact/relaxed state of its fold. Retention times of the respective protein preparation were determined by SEC at 22 °C in running buffer (50 mM Tris-HCl, pH 7.5, 1 mM DTT, 500 mM NaCl and 0.02% w/v NaN3) using Bio-Select SEC 250-5 column (BioRad) with a fractionation range of 1000–250,000 Da. […] The elution profiles of the protein preparations were determined as peaks obtained at 280 nm using a Spectra Series UV100 spectrophotometer (Thermo Fischer Scientific). […]

DnaK [11] = target: T1, DnaK; conditions: MP-SPR
Target sequence in this assay (P0A6Y8 whole entry): as the sequence (P0A6Y8 whole entry) above
Protocol: as §7

[12] = 0.2 μM protein in PBS pH 7.5, 19–95 °C

Sequence of PfHsp70-1 (P11144 1-630 limits assumed): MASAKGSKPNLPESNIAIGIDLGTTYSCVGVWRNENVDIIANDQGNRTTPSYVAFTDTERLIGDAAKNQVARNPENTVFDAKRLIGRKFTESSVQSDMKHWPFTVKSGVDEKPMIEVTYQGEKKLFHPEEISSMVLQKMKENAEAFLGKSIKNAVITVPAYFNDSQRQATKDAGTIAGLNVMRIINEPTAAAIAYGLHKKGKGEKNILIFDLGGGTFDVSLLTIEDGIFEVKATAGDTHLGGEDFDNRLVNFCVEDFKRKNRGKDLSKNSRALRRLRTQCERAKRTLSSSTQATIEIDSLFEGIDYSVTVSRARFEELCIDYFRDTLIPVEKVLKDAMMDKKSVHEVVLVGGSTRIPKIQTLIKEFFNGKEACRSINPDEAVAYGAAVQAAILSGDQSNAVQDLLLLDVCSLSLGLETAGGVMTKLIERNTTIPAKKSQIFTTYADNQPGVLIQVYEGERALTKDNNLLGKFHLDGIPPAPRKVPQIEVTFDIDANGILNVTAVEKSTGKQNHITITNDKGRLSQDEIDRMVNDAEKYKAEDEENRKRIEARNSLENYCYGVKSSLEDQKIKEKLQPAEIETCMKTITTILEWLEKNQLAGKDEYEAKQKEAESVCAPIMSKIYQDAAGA

ALLLMYRR [canonical Hsp70 model peptide substrate]
effect of N enrichment of the peptide on affinity of KPf (KPf [1]): not enhanced
effect of asparagine enrichment of the peptide on DnaK's affinity (DnaK [2]): did not enhance

Nc1ncnc2c1ncn2[C@@H]1O[C@H](COP(=O)(O)OP(=O)(O)OP(=O)(O)O)[C@@H](O)[C@H]1O [ATP, adenosine 5'-triphosphate]
Km (KPf [3]): 29.6 µM
Km (KPf [4]): 25.7 µM
Kd (DnaK [5]): 83.8 µM

GFRNNNMYRF
affinity of PfHsp70-1 relative to the non-enriched peptide (GFRVVLMYRF, ALLLMYRR) (PfHsp70-1 [6]): higher affinity

GFRVVLMYRF [canonical Hsp70 model peptide substrate]
effect of N enrichment of the peptide on affinity of KPf (KPf [1]): not enhanced
effect of asparagine enrichment of the peptide on DnaK's affinity (DnaK [2]): did not enhance

Nc1ncnc2c1ncn2[C@@H]1O[C@H](COP(=O)(O)OP(=O)(O)OP(=O)(O)O)[C@@H](O)[C@H]1O [ATP]
Kd (KPf [7]): 0.38 µM

ANNNMYRR
affinity of PfHsp70-1 relative to the non-enriched peptide (GFRVVLMYRF, ALLLMYRR) (PfHsp70-1 [6]): higher affinity

PfHsp70-1: recombinant Plasmodium falciparum Hsp70-1, cytosol-localized molecular chaperone (PF3D7_0818900)
association rate constant (kon) (PfHsp70-1 [8]; analyte PfHsp70-1 0-2000 nM over immobilized PfHsp70-1, + 5 mM ATP): 2.14 (±0.04) × 10^4 Ms^−1
association rate constant (kon) (PfHsp70-1 [8]; analyte PfHsp70-1 over immobilized PfHsp70-1, + 5 mM ADP): 1.00 (±0.17) × 10^2 Ms^−1
association rate constant (kon) (PfHsp70-1 [8]; analyte PfHsp70-1 over immobilized PfHsp70-1, no nucleotide): 8.51 (±1.20) × 10^3 Ms^−1
Vmax [9]: 22.45 (± 1.8) n/mol/min/mg
temperature of complete unfolding [10, 12]: around 90 °C
temperature up to which at least 50% fold is maintained ([10]; 0.2 μM protein in PBS pH 7.5, 19–95 °C, relative to 19 °C): 60 °C
temperature range of second unfolding phase ([10]; two-step unfolding pattern): 75–90 °C
effect of co-produced chaperone on PfAdoMetDC folding (PfAdoMetDC): fully folded status

NRNNTG [asparagine-enriched form of NRLLTG]
affinity of PfHsp70-1 for peptide (PfHsp70-1 [6]; peptide over immobilized PfHsp70-1, presence of ADP, higher than for NRLLTG): nanomolar range
affinity of KPf for peptide (KPf [1]; peptide over immobilized KPf, presence of ADP, higher than for NRLLTG): nanomolar range
affinity of DnaK for peptide (DnaK [2]): micromolar range

GroEL: E. coli chaperonin co-expressed as supplementary chaperone
effect of co-produced chaperone on PfAdoMetDC folding (PfAdoMetDC): restoration of the ß-conformation

DnaK: recombinant (His)6-tagged Escherichia coli Hsp70 (DnaK)
Vmax [9]: 14.33 (± 1.4) n/mol/min/mg
temperature above which the protein rapidly unfolded [10, 12]: above 45 °C
temperature of complete unfolding [10, 12]: approximately 68 °C
effect of co-produced chaperone on PfAdoMetDC folding (PfAdoMetDC): did not support PfAdoMetDC folding
Ka (DnaK [11]; analyte DnaK 0-2000 nM over immobilized DnaK, + 5 mM ATP, global fit): 1.38 (±0.08) × 10^2 Ms^−1
Ka (DnaK [11]; analyte DnaK over immobilized DnaK, + 5 mM ADP): 1.22 (±0.13) × 10^2 Ms^−1
Ka (DnaK [11]; analyte DnaK over immobilized DnaK, no nucleotide): 1.27 (±0.07) × 10^3 Ms^−1

NRLLTG [canonical Hsp70 model peptide substrate]
affinity of DnaK for peptide (DnaK [2]): nanomolar range
